Patent US20110014291A1, “Novel Polymorphs of Bosentan” (ACTAVIS GROUP PTC EHF, priority 2007, published 2011)

Assay: dissolution properties of the solid form
Type: physicochemical
Details: conditions not given

dissolution properties: advantageous dissolution properties
Structure (SMILES): COc1ccccc1Oc1c(NS(=O)(=O)c2ccc(C(C)(C)C)cc2)nc(-c2ncccn2)nc1OCCO [amorphous form, bosentan]
